Holding throughout (assay type): cell-based
One experiment concerns RSV Long strain. The experiment is described as follows: RSV microneutralization assay, RSV Long strain. Particulars: human respiratory syncytial virus; MOI 0.002, HEp-2 cells, day 6; read-out: RSV Long EC50. How it is done:
(§1) Duplicate 10-fold serial dilutions of compound in DMEM with 2% HI-FBS, 1× P/S, 2 mM L-Gln were prepared in 96-well tissue culture plates at 60 μL/well. The RSV Long strain (RetroVirox, San Diego), RSV A2 strain (Virapur, San Diego), RSV B1 strain (RetroVirox, San Diego), or RSV strain CH18537 (RetroVirox, San Diego), were diluted in DMEM with 2% HI-FBS, 1× P/S, 2 mM L-Gln and 60 μL/well added to 60 μL compound for a multiplicity of infection (MOI) of 0.002 (Long, A2), 0.003 (B1), or 0.004 (CH18537). Virus only (no drug) and cells only (no virus, no drug) controls were included on each plate. The compound-virus mix was incubated for 1 h at 37° C. and 5% CO2. After 1 h, medium was removed from HEp-2 cells by aspiration and wells washed once with 100 μL/well 1×PBS pH 7.4 (Fisher cat #MT21040CM). The compound-virus mix (100 μL/well) was added to the cells and incubated for 1 h at 37° C. and 5% CO2 prior to addition of 100 μL/well of DMEM with 2% HI-FBS, 1× P/S, 2 mM L-Gln (200 μL final vol) and incubation at 37° C. and 5% CO2. On day 6 post infection, supernatant was aspirated and cells fixed with 100 μL/well ice-cold 80% acetone in 1×PBS for 20 min at 4° C. The acetone was aspirated and plates air-dried for 20 min at room temperature. The plates were washed 3× with 200 μL/well 1×PBS, 0.05% Tween-20 (PBST) and blocked with 200 μL/well 5% non-fat dry milk (Fisher cat #50-195-952) in PBST for 1 h with shaking (500 rpm) on an orbital plate shaker. The blocking solution was discarded and cells incubated with 100 μL/well mouse anti-F protein antibody (MilliporeSigma cat #MAB8599) diluted 1:2,000 in diluent (blocking solution diluted 1:1 in 1×PBS pH 7.4) for 2 h with shaking. Plates were washed 5× with 300 μL/well PBST and incubated with 100 μL/well HRP-conjugated goat anti-mouse IgG antibody (SouthernBiotech cat #1030-05) diluted 1:1,000 in diluent for 1 h with shaking. Plates were washed 5× with 300 μL/well PBST and incubated with 100 μL/well TMB substrate (Fisher cat #BDB555214) for ˜5 min. The reaction was stopped with 100 μL/well 1N H2SO4. Absorbance was read at 450 nm with an EnSpire multimode plate reader (PerkinElmer). The mean A450 for the cells only control was subtracted from all A450 values, and the percent virus neutralisation calculated for each compound concentration, relative to the virus only control.

Another experiment relates to RSV Long. The experiment is described as follows: RSV plaque reduction assay, RSV Long. As to conditions: human respiratory syncytial virus, HEP-2 cells, 6 days, read-out: EC50 RSV Long MOI 0.0001. The protocol: (§2) An RSV plaque reduction assay was performed according to the following protocol. On Day 1, HEP-2 cells were seeded in 24-well plates at 5×10E5 cells/well/500 ul. On Day 2, once the cells are at 100% confluency, the cells were infected at a viral dilution of approximately 30 plaques per well in DMEM+2% FBS infection buffer and treated with compound. The medium was aspirated and cells were infected with 90 ul of viral dilution per well. Then, cells were treated with 10 ul of 10× compound resulting in a final concentration of between 1 nM-10 uM of the compound. The cells were incubated for 2 h at room temperature, rocking every 15 minutes. After 2 h, the inoculum/compound mixture is removed. 450 ul of overlay media (1 part Avicel 2.5%; 1 part DMEM+2% FBS) was added to the well and the cells were treated with 50 ul of 10× compound resulting in a final concentration of 1 nM-10 uM of the compound. The cells were incubated for 6 days at 37 deg C.
(§3) For staining and quantification: The infected cell plates were fixed with 100% methanol for 10 to 30 minutes. The plates were washed three times with 5% milk/PBS, 1 mL/well. A primary antibody, goat anti-RSV polyclonal antibody (Chemicon Cat #AB1128), diluted in 5% milk/PBS at 1:1000 was put onto each well. […] The plates were rinsed 3 times with deionized water, air-dried and the number of plaques was counted.

The next experiment concerns RSV A2 strain. In words: RSV microneutralization assay, RSV A2 strain. As to conditions: human respiratory syncytial virus; MOI 0.002, HEp-2 cells, day 6. How it is done:
as §1, with “HEp-2 cells (ATCC #CCL-23) were seeded at 5E4/well/200 μL in DMEM (Fisher cat #11965118) supplemented with 10% heat-inactivated (HI) fetal bovine serum (HI-FBS; Fisher cat #10-082-147), 1× penicillin-streptomycin (P/S, 100 μg/mL; Fisher cat #MT30002C), and 1× L-glutamine (L-Gln, 2 mM; Fisher cat #25030-164) in 96-well tissue culture treated plates (Fisher cat #08-772-17) and incubated overnight at 37° C. and 5% CO2. Duplicate” for “Duplicate”

Another experiment has as its system RSV B1. In words: RSV plaque reduction assay, RSV B1. As to conditions: human respiratory syncytial virus, HEP-2 cells, 6 days, read-out: EC50 RSV B1 MOI 0.0001. The protocol: as §2, §3
Another experiment deals with RSV B1 strain. The experiment is described as follows: RSV microneutralization assay, RSV B1 strain. As to conditions: human respiratory syncytial virus; MOI 0.003, HEp-2 cells, day 6. The protocol: (§4) HEp-2 cells (ATCC #CCL-23) were seeded at 5E4/well/200 μL in DMEM (Fisher cat #11965118) supplemented with 10% heat-inactivated (HI) fetal bovine serum (HI-FBS; Fisher cat #10-082-147), 1× penicillin-streptomycin (P/S, 100 μg/mL; Fisher cat #MT30002C), and 1× L-glutamine (L-Gln, 2 mM; Fisher cat #25030-164) in 96-well tissue culture treated plates (Fisher cat #08-772-17) and incubated overnight at 37° C. and 5% CO2. Duplicate 10-fold serial dilutions of compound in DMEM with 2% HI-FBS, 1× P/S, 2 mM L-Gln were prepared in 96-well tissue culture plates at 60 μL/well. The RSV Long strain (RetroVirox, San Diego), RSV A2 strain (Virapur, San Diego), RSV B1 strain (RetroVirox, San Diego), or RSV strain CH18537 (RetroVirox, San Diego), were diluted in DMEM with 2% HI-FBS, 1× P/S, 2 mM L-Gln and 60 μL/well added to 60 μL compound for a multiplicity of infection (MOI) of 0.002 (Long, A2), 0.003 (B1), or 0.004 (CH18537). Virus only (no drug) and cells only (no virus, no drug) controls were included on each plate. The compound-virus mix was incubated for 1 h at 37° C. and 5% CO2. […] Absorbance was read at 450 nm with an EnSpire multimode plate reader (PerkinElmer). The mean A450 for the cells only control was subtracted from all A450 values, and the percent virus neutralisation calculated for each compound concentration, relative to the virus only control.

Experiment [1] concerns RSV (Respiratory Syncytial Virus strain A2). In words: RSV cytopathic effects (CPE) assay. As to conditions: human respiratory syncytial virus, 96 h; RSV A2, MOI 0.01, HEp-2 cells, day 4, crystal violet; average of duplicate wells; read-out: EC50. The protocol:
The activity of anti-RSV compounds and conjugates was determined using an in vitro cell-based assay following a standard protocol in the field. Briefly, ten four-fold serial dilutions of each test article (TA) starting at 10 μM were prepared in duplicate and incubated with RSV (Respiratory Syncytial Virus strain A2) at a multiplicity of infection (MOI) of 0.01, for one hour. The RSV-TA mix was then added to HEp-2 cells seeded in 96-well plates and incubated for one hour.

The subject of a further experiment is RSV strain CH18537. The experiment is described as follows: RSV microneutralization assay, RSV strain CH18537. Particulars: human respiratory syncytial virus; MOI 0.004, HEp-2 cells, day 6. How it is done: as §4

Molecules are shown by their SMILES.

A word on the EC50: it is the midpoint of the concentration-response curve.

As for `C#CCOCCOCCOCCOCCOCCCCn1c(CN2C(=O)C3(CCN(C(=O)OC(C)(C)C)CC3)c3ccncc32)nc2cc(Cl)ccc21` [Int-42], the EC50 with RSV Long strain amounted to 0.22 nM; with RSV Long, 17 nM; in the experiment with RSV A2 strain it was 0.88 nM; in the experiment on RSV B1 it was 13 nM.
Regarding `Cc1cn2nc([C@@H]3CCCCN3C(=O)c3cc(Cl)ccc3NS(C)(=O)=O)cc2nc1N1CC[C@H](N)C1` [Presatovir, reference compound], the EC50 in the experiment with RSV Long strain amounted to 0.0084 nM; with RSV B1 strain, 0.82 nM; in the experiment with RSV A2 strain, 0.014 nM; in experiment [1] it was 0.0769 nM; with RSV strain CH18537, 0.32 nM.

The values are drawn from US20230082611A1, “COMPOSITIONS AND METHODS FOR THE TREATMENT OF RESPIRATORY SYNCYTIAL VIRUS” (Cidara Therapeutics, Inc., priority 2019, published 2023).
